In publication PMC10787067, “EBF2 Links KMT2D‐Mediated H3K4me1 to Suppress Pancreatic Cancer Progression via Upregulating KLLN” (Advanced Science, 2023):

Key:
KLLN [1] = experiment: Western blot and IHC of metastatic foci from treated mice, KLLN; assay type: in vivo, Human (xenograft in BALB/c nude mice); details: control vs GSK-LSD1-treated lung metastasis tissues, Figure 5L,M
H3K4me1 [2] = experiment: Western blot of H3K4me1 in SW1990 cells; assay type: cell-based, Human
SW1990 cells [3] = experiment: Colony-formation and CCK-8 proliferation, SW1990; assay type: cell-based, Human; details: vs Vehicle, p < 0.01, Figure 5F,G
Experimental: (§1) Cell proliferation was determined by Cell Counting Kit‐8 (CCK‐8, Yeasen) and EdU Cell Proliferation Assay kit (Ribobio, Guangzhou, China). Colony formation was observed by staining with 0.1% crystal violet (Sangon Biotechnologies Inc., Shanghai, China). Cell migration and invasion were assessed using […] pore Transwell chambers with (for invasion assay) or without Matrigel (for migration assay). For migration assay, 5 × 10^4 SW1990 or 3 × 10^4 PANC‐1 cells were seeded into the upper chamber of the Transwell apparatus (Corning, USA) in serum‐free medium, and the medium supplemented with 10% FBS was added to the bottom chamber. For invasion assay, 10 × 10^4 SW1990 or 6 × 10^4 PANC‐1 cells were seeded into the upper Corning BioCoat Matrigel invasion chamber. After 24 h, the cells on the upper surface that had not passed through the polycarbonate filter were removed using a moistened cotton swab; the cells having migrated to the lower membrane surface were fixed in 100% methanol for 10 min, stained with 0.4% crystal violet for 15 min, and counted under a microscope (Nikon, Japan) at ×100 magnification. The cells were manually counted using Image J software. Three independent experiments were performed.

H3K4me1 [4] = experiment: IHC of H3K4me1 in PDX tumors; assay type: in vivo, Human (xenograft in immunodeficient nude mice); details: vs control, Figure 5O
Experimental: PDAC and tumor adjacent tissues were obtained from the Second Affiliated Hospital of Nanjing Medical University. Ninety pairs of ductal adenocarcinoma and adjacent normal pancreatic tissue sections (HPanA180Su03) were obtained from Shanghai Outdo Biotech (National Human Genetic Resources Sharing Service Platform with code No. XT20‐021, Shanghai, China), under the approval by the Ethics Committee of Shanghai Outdo Biotech. IHC staining was performed on paraffin‐embedded sections of biopsies from ductal adenocarcinoma patients and controls according to standard protocols (CST). […] All pancreatic cancer tissue sections were examined by two experienced pathologists, and the EBF2, KMT2D or KLLN stained in the tissue was scored independently using the H‐score system by two pathologists blinded to the clinical data. […] For the Pearson correlation scatter plot of molecules in ductal adenocarcinoma, the H score was calculated by adding the multiplication product of the different staining intensities in category A (0–3) with the percentage of positive cells, i.e., H score (0–300 scale) = 3 × (% at 3+) + 2 × (% at 2+) + 1 × (% at 1+). […] The between‐group difference in the overall survival was evaluated by the log‐rank test. The correlation between EBF2, KMT2D, and KLLN expression in ductal adenocarcinoma was assessed via Pearson correlation analysis. […]

H3K4me1 [5] = experiment: Western blot and IHC of metastatic foci from treated mice, H3K4me1; assay type: in vivo, Human (xenograft in BALB/c nude mice); details: control vs GSK-LSD1-treated lung metastasis tissues, Figure 5L,M
SW1990 cells [6] = experiment: RNA-seq of GSK-LSD1-treated SW1990 cells; assay type: cell-based, Human; details: fold change > 1.5, p < 0.05, Figure 4A
Excerpt: Total RNA was isolated from cells using RNAiso plus (Takara). The quantity and integrity of RNA were separately evaluated using the K5500 (Beijing Kaiao, China) and the Agilent 2200 TapeStation (Agilent Technologies, USA). Briefly, the mRNA was enriched by OligodT NEBNext Poly(A) mRNA Magnetic Isolation Module (NEB, USA), and then fragmented into ≈200 bp. Subsequently, the RNA fragments were subjected to first and second strand cDNA synthesis, followed by adaptor ligation and enrichment according to instructions of NEBNext Ultra RNA Library Prep Kit for Illumina. The purified library products were evaluated by the Agilent 2200 TapeStation and Qubit (Thermo Fisher Scientific, USA). The libraries were sequenced by Illumina (Illumina, USA) with paired‐end 150 bp (Ribobio, China). The clean reads were acquired after discarding low‐quality reads or those containing adapter and ploy‐N. HISAT2 was employed to calibrate clean reads to human reference genome hg38 with default parameters. HTSeq was used to convert aligned short reads into read counts for each gene model. Differential gene expression was assessed by DESeq2 using read counts as input.^[ [62] ^] The Benjamini–Hochberg multiple test correction method was employed. […] RNA‐seq data sets were available (GEO accession number GSE237363).

PANC‐1 cells = experiment: Transwell migration and invasion, PANC-1; assay type: cell-based, Human; details: 24 h, vs Vehicle, p < 0.01, Figure S4G
Experimental: as §1

KLLN [7] = experiment: qPCR of KLLN mRNA in SW1990 cells; assay type: cell-based, Human; details: vs negative control, p < 0.01, Student's t-test, concentration not given, Figure 4E
Experimental: Total RNA was extracted from cultured cells using RNAiso plus (Takara, Japan). cDNA was synthesized from every 1 µg of total RNA in reverse transcription reactions with Hifair III 1st Strand cDNA Synthesis SuperMix for qPCR (Cat No. 11 141; Yeasen, Shanghai, China). qPCR was performed with Hieff qPCR SYBR Green Master Mix (Yeasen) using a Roche LightCycler 96 Real‐Time PCR System. Cycling conditions were set at 94 °C for 15 s, 60 °C for 1 min, and 72 °C for 30 s. Each reaction was performed in triplicate. The primer sequences were as follows: KMT2D‐F: 5′‐[…]‐3′; KMT2D‐R: 5′‐[…]‐3′; EBF2‐F: 5′‐[…]‐3′; EBF2‐R: 5′‐[…]‐3′; KLLN‐F: 5′‐[…]‐3’; KLLN‐R: 5′‐[…]‐3′. β‐actin‐F: 5′‐[…]‐3′; β‐actin‐R: 5′‐[…]‐3′.

c1ccc([C@@H]2C[C@H]2NC2CCNCC2)cc1 [GSK‐LSD1]
KLLN in metastatic foci (KLLN [1]): upregulation | H3K4me1 level, concentration dependence (H3K4me1 [2]; 0, 1, 10, or 100 µM GSK-LSD1, Figure 5E): increased the levels of H3K4me1 and KLLN in a concentration‐dependent manner | H3K4me1 level in Co-IP experiment (H3K4me1 [2]; vs vehicle, concentration not given, Figure 5P): increased H3K4me1 level | proliferation (SW1990 cells [3]): significantly inhibited | H3K4me1 expression in PDX tumors (H3K4me1 [4]): significantly upregulated | H3K4me1 in metastatic foci (H3K4me1 [5]): upregulation | upregulated genes overlapping between EBF2-OE and GSK-LSD1-treated cells (SW1990 cells [6]): 17 | invasion (PANC‐1 cells; Transwell with Matrigel): significantly inhibited | migration (PANC‐1 cells; Transwell without Matrigel): significantly inhibited | KLLN mRNA level (KLLN [7]): significant upregulation
